Data as given in patent publication EP1944296A1, “Amorphous phase of a substituted pyrazoline, its preparation and use as medicaments” (Laboratorios del Dr. Esteve S.A., priority 2007, dated 2008).

Target: T1, recombinant human cannabinoid 1 receptor (CB1) (Homo sapiens, UniProt P21554)
T1 construct: expressed in transfected cells; membrane preparation
Experiment: In vitro determination of antagonism to CB1-receptor, [35S]GTPγS binding assay
Assay type: biochemical
Conditions: compound 1 µM vs agonist WIN 55,212-2; 100 % = effect of Rimonabant (1 µM)
Procedure: The reaction is performed in 96-well plates. […] Radioactivity is determined using a Wallac Microbeta Trilux. Each experiment is performed at least in duplicate.
The average of basal [^35S]GTPγS binding is subtracted from all binding data.

T1 sequence (P21554 whole entry): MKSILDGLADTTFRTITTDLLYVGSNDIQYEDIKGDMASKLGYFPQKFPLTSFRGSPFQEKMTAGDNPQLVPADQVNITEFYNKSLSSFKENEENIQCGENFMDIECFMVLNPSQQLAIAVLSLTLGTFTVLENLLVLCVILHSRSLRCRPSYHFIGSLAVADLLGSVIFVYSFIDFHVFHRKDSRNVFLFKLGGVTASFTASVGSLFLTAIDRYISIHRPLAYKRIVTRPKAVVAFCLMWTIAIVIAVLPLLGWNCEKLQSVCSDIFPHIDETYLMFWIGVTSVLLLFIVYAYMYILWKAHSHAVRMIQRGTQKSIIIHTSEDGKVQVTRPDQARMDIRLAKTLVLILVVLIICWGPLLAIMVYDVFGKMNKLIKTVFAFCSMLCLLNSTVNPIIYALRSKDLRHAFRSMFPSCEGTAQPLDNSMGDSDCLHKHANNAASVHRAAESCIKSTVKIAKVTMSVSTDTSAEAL

## O=C(NN1CCCCC1)C1=NN(c2ccc(Cl)cc2Cl)[C@@H](c2ccc(Cl)cc2)C1 [Example 1, (R)-N-piperidinyl-5-(4-chlorophenyl)-1-(2,4-dichlorophenyl)-4,5-dihydro-1H-pyrazole-3-carboxamide]
  Antagonism: 106%
